ChEMBL document CHEMBL4020841, “Structure Guided Lead Generation toward Nonchiral M. tuberculosis Thymidylate Kinase Inhibitors” (J Med Chem, 2018)
The source made the active and inactive calls. No cut-off for these calls is given here.

Each compound was assayed on Mycobacterium tuberculosis (assay: Antimicrobial activity against Mycobacterium tuberculosis H37Ra ATCC 25177 harboring pSMT1 luciferase reporter plasmid up to 64 uM after 7 days by luminometric method).
Assay type: functional

SMILES	Activity
Cc1cn(C2CN(Cc3ccc(Oc4ccccc4)cc3)C2)c(=O)[nH]c1=O	inactive
COc1ccc(CN2CCC(n3cc(C)c(=O)[nH]c3=O)CC2)cc1	inactive
Cc1cn(CC2CCN(Cc3cccc(Oc4ccccc4)c3)CC2)c(=O)[nH]c1=O	inactive
Cc1cn(C2CCN(Cc3cc4ccccc4o3)CC2)c(=O)[nH]c1=O	inactive
Cc1cn(C2CCN(Cc3ccc(C#N)cc3)CC2)c(=O)[nH]c1=O	inactive
Cc1cn(C2CCN(Cc3ccncc3)CC2)c(=O)[nH]c1=O	inactive
Cc1cn(C2CCN(Cc3cc(Oc4ccccc4)c4ccc(Cl)cc4n3)CC2)c(=O)[nH]c1=O	inactive
Cc1cn(C2CCN(CCc3cccc(Oc4ccccc4)c3)CC2)c(=O)[nH]c1=O	inactive
Cc1cn(C2CCN(CC3CCCCC3)CC2)c(=O)[nH]c1=O	inactive
Cc1cn(C2CCN(Cc3ccc(C(=O)O)cc3)CC2)c(=O)[nH]c1=O	inactive
Cc1cn(C2CCN(Cc3cncc4ccccc34)CC2)c(=O)[nH]c1=O	inactive
Cc1cn(C2CCN(Cc3ccc(N(C)C)cc3)CC2)c(=O)[nH]c1=O	inactive
Cc1cn(C2CN(Cc3cccc(Oc4ccccc4)c3)C2)c(=O)[nH]c1=O	inactive
Cc1cn(C2CN(CCc3cccc(Oc4ccccc4)c3)C2)c(=O)[nH]c1=O	inactive
Cc1cn(C2CCN(Cc3ccccn3)CC2)c(=O)[nH]c1=O	inactive
Cc1cn(C2CCN(Cc3cccc4ccccc34)CC2)c(=O)[nH]c1=O	inactive
Cc1cn(C2CCN(Cc3cccc(C(=O)O)n3)CC2)c(=O)[nH]c1=O	inactive
Cc1ccc(CN2CCC(n3cc(C)c(=O)[nH]c3=O)CC2)cc1	inactive

SMILES	Activity
Cc1cn(C2CCN(Cc3ccnc4ccccc34)CC2)c(=O)[nH]c1=O	inactive
Cc1cn(C2CN(CCCc3cccc(Oc4ccccc4)c3)C2)c(=O)[nH]c1=O	inactive
Cc1cn(C2CCN(Cc3ccc(Cl)cc3)CC2)c(=O)[nH]c1=O	inactive
Cc1cn(C2CCN(Cc3cc4ccccc4cn3)CC2)c(=O)[nH]c1=O	inactive
Cc1cn(C2CCN(C(=O)c3cccc(Oc4ccccc4)c3)CC2)c(=O)[nH]c1=O	inactive
Cc1cccc(CN2CCC(n3cc(C)c(=O)[nH]c3=O)CC2)c1	inactive
Cc1cn(C2CCN(Cc3cccnc3)CC2)c(=O)[nH]c1=O	inactive
Cc1cn(C2CCN(Cc3ccco3)CC2)c(=O)[nH]c1=O	inactive
Cc1cn(C2CCN(Cc3cnc4ccccc4c3)CC2)c(=O)[nH]c1=O	inactive
Cc1cn(C2CCN(Cc3cccc(Oc4ccccc4)c3)CC2)c(=O)[nH]c1=O	inactive
Cc1cn(C2CCN(Cc3ccccc3)CC2)c(=O)[nH]c1=O	inactive
Cc1cn(CC2CCN(Cc3ccc(Oc4ccccc4)cc3)CC2)c(=O)[nH]c1=O	inactive
Cc1cn(C2CCN(C(=O)c3ccc(Oc4ccccc4)cc3)CC2)c(=O)[nH]c1=O	inactive
Cc1cn(C2CCN(Cc3ccc4ccccc4c3)CC2)c(=O)[nH]c1=O	inactive
Cc1cn(C2CCN(Cc3ccoc3)CC2)c(=O)[nH]c1=O	inactive
Cc1cn(C2CCN(Cc3ccc(Oc4ccccc4)cc3)CC2)c(=O)[nH]c1=O	inactive
Cc1cn(C2CCN(Cc3nccc4ccccc34)CC2)c(=O)[nH]c1=O	inactive
